Assay results as given in patent US7851500B2, “Aminopyrazole kinase inhibitors” (Bristol-Myers Squibb Company, priority 2007, dated 2010).

What follows are molecules tested against IGF1-receptor (Homo sapiens, UniProt P08069) (assay: IGF1-Receptor Tyrosine Kinase Assay). Details: ATP 25 μM; FL-peptide 1.5 μM; IGF1-Receptor 14 nM; 60 min room temperature; Caliper LabChip 3000; read-out: IGF-1R IC50.
Type: biochemical
Procedure: D. IGF1-Receptor Tyrosine Kinase Assay
The assays were performed in U-bottom 384-well plates. The final assay volume was 30 μl prepared from 15 μl additions of enzyme and substrates (fluoresceinated IGF1R substrate peptide and ATP) and test compounds in assay buffer (100 mM HEPES pH 7.4, 10 mM MnCl2, 0.015% Brij35 and 4 mM DTT). The reaction was initiated by the combination of IGF1-receptor with substrates and test compounds. The reaction was incubated at room temperature for 60 min. and terminated by adding 30 μl of 35 mM EDTA to each sample. The reaction mixture was analyzed on the Caliper LabChip 3000 by electrophoretic separation of the fluorescent substrate and phosphorylated product. Inhibition data were calculated by comparison to no enzyme control reactions for 100% inhibition and vehicle-only reactions for 0% inhibition. The final concentration of reagents in the assays is ATP, 25 μM; FL-peptide, 1.5 μM; IGF1-Receptor, 14 nM; and DMSO, 1.6%. Dose response curves were generated to determine the concentration required inhibiting 50% of kinase activity (IC50). Compounds were dissolved at 10 mM in dimethylsulfoxide (DMSO) and evaluated at eleven concentrations, each in duplicate. IC50 values were derived by non-linear regression analysis
Compounds described herein were tested in the above assay.

IGF1-receptor, sequence (P08069 31-1367): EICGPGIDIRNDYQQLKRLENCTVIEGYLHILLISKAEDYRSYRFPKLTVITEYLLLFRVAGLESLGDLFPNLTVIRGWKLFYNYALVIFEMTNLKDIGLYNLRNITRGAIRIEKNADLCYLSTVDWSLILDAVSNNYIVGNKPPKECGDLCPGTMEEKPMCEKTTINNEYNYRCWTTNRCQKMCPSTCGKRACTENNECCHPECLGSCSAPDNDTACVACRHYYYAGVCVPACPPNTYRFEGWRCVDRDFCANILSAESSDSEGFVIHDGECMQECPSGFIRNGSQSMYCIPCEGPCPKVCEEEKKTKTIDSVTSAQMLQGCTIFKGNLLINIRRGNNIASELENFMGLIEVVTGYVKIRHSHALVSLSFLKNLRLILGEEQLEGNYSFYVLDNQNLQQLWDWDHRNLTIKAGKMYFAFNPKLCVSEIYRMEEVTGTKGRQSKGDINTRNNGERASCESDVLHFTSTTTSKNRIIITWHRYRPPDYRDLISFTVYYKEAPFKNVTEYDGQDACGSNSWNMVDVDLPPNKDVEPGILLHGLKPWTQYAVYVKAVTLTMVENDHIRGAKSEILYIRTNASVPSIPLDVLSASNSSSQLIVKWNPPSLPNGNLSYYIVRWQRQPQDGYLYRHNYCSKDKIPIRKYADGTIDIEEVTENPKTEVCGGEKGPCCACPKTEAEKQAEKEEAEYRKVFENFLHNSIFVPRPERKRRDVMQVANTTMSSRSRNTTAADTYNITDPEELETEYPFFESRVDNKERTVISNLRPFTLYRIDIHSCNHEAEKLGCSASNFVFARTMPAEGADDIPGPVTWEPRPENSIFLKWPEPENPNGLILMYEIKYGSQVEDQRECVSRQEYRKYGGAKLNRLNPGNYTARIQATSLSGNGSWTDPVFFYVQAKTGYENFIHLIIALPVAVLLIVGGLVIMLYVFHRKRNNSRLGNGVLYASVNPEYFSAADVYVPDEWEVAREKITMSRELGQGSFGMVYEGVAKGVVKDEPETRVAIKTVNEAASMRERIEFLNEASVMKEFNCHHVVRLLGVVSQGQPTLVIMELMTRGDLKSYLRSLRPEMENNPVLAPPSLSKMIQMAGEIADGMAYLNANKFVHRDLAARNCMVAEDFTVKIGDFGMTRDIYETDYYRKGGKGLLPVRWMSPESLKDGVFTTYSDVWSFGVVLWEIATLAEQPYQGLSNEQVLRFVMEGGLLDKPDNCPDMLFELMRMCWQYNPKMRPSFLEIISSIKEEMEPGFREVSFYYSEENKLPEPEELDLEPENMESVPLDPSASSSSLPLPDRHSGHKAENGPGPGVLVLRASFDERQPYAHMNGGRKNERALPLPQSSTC

IC50 [nM] | SMILES
4470 | NC(=O)c1cccc(Sc2cc(Nc3ncnn4cccc34)n[nH]2)c1 [Example 4, 3-(3-(Pyrrolo[1,2-f][1,2,4]triazin-4-ylamino)-1H-pyrazol-5-ylthio)benzamide]
15.1 | O=C(NC1CN(S(=O)(=O)c2ccc(F)cc2)C1)c1cccc(Sc2cc(Nc3ccccn3)n[nH]2)c1 [Example 10, N-(1-(4-Fluorophenylsulfonyl)azetidin-3-yl)-3-(3-(pyridin-2-ylamino)-1H-pyrazol-5-ylthio)benzamide]
> 25000 | CCOC(=O)c1cccc(Sc2cc(Nc3ncnn4cccc34)n[nH]2)c1 [Example 1, Ethyl 3-(3-(pyrrolo[1,2-f][1,2,4]triazin-4-ylamino)-1H-pyrazol-5-ylthio)benzoate]
12.4 | O=C(NC1CN(S(=O)(=O)c2ccccc2)C1)c1cccc(Sc2cc(Nc3ncnn4cccc34)n[nH]2)c1 [Example 3, N-(1-(Phenylsulfonyl)azetidin-3-yl)-3-(3-pyrrolo[1,2-f][1,2,4]triazin-4-ylamino-1H-pyrazol-5-ylthio)benzamide]
295 | CC(C)(C)OC(=O)N1CC(NC(=O)c2cccc(Sc3cc(Nc4ncnn5cccc45)n[nH]3)c2)C1 [Example 5]
3190 | O=C(NCCc1c[nH]cn1)c1cccc(Sc2cc(Nc3ncnn4cccc34)n[nH]2)c1 [Example 8, N-(2-(1H-Imidazol-4-yl)ethyl)-3-(3-(pyrrolo[1,2-f][1,2,4]triazin-4-ylamino)-1H-pyrazol-5-ylthio)benzamide]
